Measurements published in ChEMBL document CHEMBL3046027, “In vitro and in vivo antifungal activity of synthetic pure isothiocyanates against Sclerotinia sclerotiorum” (Pest Manag Sci, 2011).

Assays:
Sclerotinia sclerotiorum [1] = assay: In vivo antifungal Sclerotinia sclerotiorum in Pepper (Capsicum annuum L. cv. Sera Demre) assessed as inhibition of mycelial growth in volatile phase at 168 umol/L measured after 10 to 14 weeks; format: functional
Sclerotinia sclerotiorum [2] = assay: In vivo antifungal Sclerotinia sclerotiorum in Pepper (Capsicum annuum L. cv. Sera Demre) assessed as inhibition of mycelial growth in volatile phase at 84 umol/L measured after 10 to 14 weeks; format: functional
Sclerotinia sclerotiorum [3] = assay: Antifungal activity against Sclerotinia sclerotiorum assessed as inhibition of mycelial growth in contact phase at 2531 umol/l measured at 20 degC after 5 days; format: functional; conditions: 120 h, read-out: GI
Sclerotinia sclerotiorum [4] = assay: Antifungal activity against Sclerotinia sclerotiorum assessed as inhibition of mycelial growth in contact phase at 1688 umol/l measured at 20 degC after 5 days; format: functional; conditions: 120 h, read-out: GI
Sclerotinia sclerotiorum [5] = assay: Antifungal activity against Sclerotinia sclerotiorum assessed as inhibition of mycelial growth in contact phase at 844 umol/l measured at 20 degC after 5 days; format: functional; conditions: 120 h, read-out: GI
Sclerotinia sclerotiorum [6] = assay: Antifungal activity against Sclerotinia sclerotiorum assessed as inhibition of mycelial growth in contact phase at 759 umol/l measured at 20 degC after 5 days; format: functional; conditions: 120 h, read-out: GI
Sclerotinia sclerotiorum [7] = assay: Antifungal activity against Sclerotinia sclerotiorum assessed as inhibition of mycelial growth in contact phase at 591 umol/l measured at 20 degC after 5 days; format: functional; conditions: 120 h, read-out: GI
Sclerotinia sclerotiorum [8] = assay: Fungistatic activity in Sclerotinia sclerotiorum assessed as inhibition of carpogenic germination in volatile phase at 840 umol/l measured at 20 degC after 5 days relative to control; format: functional; conditions: 120 h
Sclerotinia sclerotiorum [9] = assay: Fungistatic activity in Sclerotinia sclerotiorum assessed as inhibition of carpogenic germination in volatile phase at 422 umol/l measured at 20 degC after 5 days relative to control; format: functional; conditions: 120 h
Sclerotinia sclerotiorum [10] = assay: Fungistatic activity in Sclerotinia sclerotiorum assessed as inhibition of carpogenic germination in volatile phase at 84 umol/l measured at 20 degC after 5 days relative to control; format: functional; conditions: AT84, 120 h
Sclerotinia sclerotiorum [11] = assay: Fungistatic activity in Sclerotinia sclerotiorum assessed as inhibition of carpogenic germination in volatile phase at 42 umol/l measured at 20 degC after 5 days relative to control; format: functional; conditions: 120 h
Sclerotinia sclerotiorum [12] = assay: Fungistatic activity in Sclerotinia sclerotiorum assessed as sclerotial viability measured at 20 degC after 5 days; format: functional, organism-based; conditions: 120 h
Sclerotinia sclerotiorum [13] = assay: Fungistatic activity in Sclerotinia sclerotiorum assessed as inhibition of mycelial growth in volatile phase measured at 20 degC after 5 days; format: functional, organism-based; conditions: 120 h
Sclerotinia sclerotiorum [14] = assay: Fungistatic activity in Sclerotinia sclerotiorum assessed as inhibition of mycelial growth in contact phase measured at 20 degC after 5 days; format: functional, organism-based; conditions: 120 h
Sclerotinia sclerotiorum [15] = assay: Fungistatic activity in Sclerotinia sclerotiorum assessed as viability in volatile phase at 844 umol/l measured at 20 degC after 5 days relative to control; format: functional; conditions: 120 h, read-out: GI
Sclerotinia sclerotiorum [16] = assay: Fungitoxic activity in Sclerotinia sclerotiorum assessed as inhibition of mycelial growth in contact phase at 2531 umol/l measured at 20 degC after 5 days relative to control; format: functional; conditions: 120 h, read-out: GI
Sclerotinia sclerotiorum [17] = assay: Antifungal activity against Sclerotinia sclerotiorum assessed as inhibition of mycelial growth in volatile phase at 840 umol/l measured at 20 degC after 5 days; format: functional; conditions: 120 h, read-out: GI
Sclerotinia sclerotiorum [18] = assay: Antifungal activity against Sclerotinia sclerotiorum assessed as inhibition of mycelial growth in volatile phase at 588 umol/l measured at 20 degC after 5 days; format: functional; conditions: 120 h, read-out: GI
Sclerotinia sclerotiorum [19] = assay: Antifungal activity against Sclerotinia sclerotiorum assessed as inhibition of mycelial growth in volatile phase at 422 umol/l measured at 20 degC after 5 days; format: functional; conditions: 120 h, read-out: GI
Sclerotinia sclerotiorum [20] = assay: Antifungal activity against Sclerotinia sclerotiorum assessed as inhibition of mycelial growth in volatile phase at 84 umol/l measured at 20 degC after 5 days; format: functional; conditions: 120 h, read-out: GI
Sclerotinia sclerotiorum [21] = assay: Antifungal activity against Sclerotinia sclerotiorum assessed as inhibition of mycelial growth in volatile phase at 42 umol/l measured at 20 degC after 5 days; format: functional; conditions: 120 h, read-out: GI
Sclerotinia sclerotiorum [22] = assay: Fungistatic activity in Sclerotinia sclerotiorum assessed as inhibition of mycelial growth in contact phase at 1688 umol/l measured at 20 degC after 5 days relative to control; format: functional; conditions: 120 h, read-out: GI
Sclerotinia sclerotiorum [23] = assay: Antifungal activity against Sclerotinia sclerotiorum assessed as inhibition of germination in volatile phase at 844 umol/l measured at 20 degC after 5 days; format: functional; conditions: 120 h
Sclerotinia sclerotiorum [24] = assay: Antifungal activity against Sclerotinia sclerotiorum assessed as inhibition of germination in volatile phase at 422 umol/l measured at 20 degC after 5 days; format: functional; conditions: 120 h
Sclerotinia sclerotiorum [25] = assay: Antifungal activity against Sclerotinia sclerotiorum assessed as inhibition of germination in volatile phase at 253 umol/l measured at 20 degC after 5 days; format: functional; conditions: 120 h
Sclerotinia sclerotiorum [26] = assay: Antifungal activity against Sclerotinia sclerotiorum assessed as inhibition of germination in volatile phase at 84 umol/l measured at 20 degC after 5 days; format: functional; conditions: AT84, 120 h
Sclerotinia sclerotiorum [27] = assay: Antifungal activity against Sclerotinia sclerotiorum assessed as inhibition of germination in volatile phase at 42 umol/l measured at 20 degC after 5 days; format: functional; conditions: 120 h
Sclerotinia sclerotiorum [28] = assay: Fungistatic activity in Sclerotinia sclerotiorum assessed as inhibition of mycelial growth in volatile phase at 588 umol/l measured at 20 degC after 5 days relative to control; format: functional; conditions: 120 h, read-out: GI

CCCCN=C=S [BUTYL ISOTHIOCYANATE]
inhibition in vivo at 168 µM (Sclerotinia sclerotiorum [1]): 63.3%
inhibition in vivo at 84 µM (Sclerotinia sclerotiorum [2]): 31.7%
inhibition of growth at 2531 µM (Sclerotinia sclerotiorum [3]): 100%
inhibition of growth at 1688 µM (Sclerotinia sclerotiorum [4]): 100%
inhibition of growth at 844 µM (Sclerotinia sclerotiorum [5]): 29.2%
inhibition of growth at 759 µM (Sclerotinia sclerotiorum [6]): 11.7%
inhibition of growth at 591 µM (Sclerotinia sclerotiorum [7]): 5%
inhibition at 840 µM (Sclerotinia sclerotiorum [8]): 92.5%
inhibition at 422 µM (Sclerotinia sclerotiorum [9]): 82.5%
inhibition at 84 µM (Sclerotinia sclerotiorum [10]): 80%
inhibition at 42 µM (Sclerotinia sclerotiorum [11]): 77.5%
EC50 (Sclerotinia sclerotiorum [12]): 403 µM
EC50 (Sclerotinia sclerotiorum [13]): 87.3 µM
EC50 (Sclerotinia sclerotiorum [14]): 932 µM
inhibition of growth at 844 µM (Sclerotinia sclerotiorum [15]): 100%
inhibition of growth at 2531 µM (Sclerotinia sclerotiorum [16]): 100%
inhibition of growth at 840 µM (Sclerotinia sclerotiorum [17]): 100%
inhibition of growth at 588 µM (Sclerotinia sclerotiorum [18]): 72.3%
inhibition of growth at 422 µM (Sclerotinia sclerotiorum [19]): 70.3%
inhibition of growth at 84 µM (Sclerotinia sclerotiorum [20]): 48.7%
inhibition of growth at 42 µM (Sclerotinia sclerotiorum [21]): 22.8%
inhibition of growth at 1688 µM (Sclerotinia sclerotiorum [22]): 100%
inhibition at 844 µM (Sclerotinia sclerotiorum [23]): 100%
inhibition at 422 µM (Sclerotinia sclerotiorum [24]): 46.7%
inhibition at 253 µM (Sclerotinia sclerotiorum [25]): 13.3%
inhibition at 84 µM (Sclerotinia sclerotiorum [26]): 0%
inhibition at 42 µM (Sclerotinia sclerotiorum [27]): 0%
inhibition of growth at 588 µM (Sclerotinia sclerotiorum [28]): 100%
